Patent US20040186046A1, “Treatment of type 1 diabetes with PDE5 inhibitors” (Pfizer Inc, priority 2003, published 2004)

Key:
[1] = tested on: control and STZ-treated rats; assay: Plasma glucose in control and STZ-treated rats (model of Type 1 diabetes) on chronic sildenafil; format: in vivo, rat; conditions: for minimum glucose levels (Table 3), Change from vehicle / minimum glucose levels (Table 3), Sildenafil group / minimum plasma glucose (Table 2), Change from vehicle / minimum plasma glucose (Table 2), Sildenafil group: sildenafil 60 mg/kg/day sc; for minimum plasma glucose (Table 2), Change from vehicle / minimum plasma glucose (Table 2), Sildenafil group: average, week 2 to week 6; for statistical significance (p) of effect of sildenafil on minimum glucose levels / statistical significance (p) of effect of Sildenafil on average glucose: vs vehicle
Procedure: STZ is a nitrosamine which is toxic to the pancreatic β-cells and STZ-treated rats have been used as an experimental model for Type 1 diabetes (see e.g. Ari et al, Clin Sci (Colch) 1999:96:365).
(§1) To induce Type 1 diabetes, rats of 200-250 g were injected intra-peritoneally with streptozotocin (60 mg/kg) in citrate phosphate buffer, pH4.5 or the equivalent volume of vehicle. The development of non-keturonic hyperglycaemic diabetes was induced within 48 h and was confirmed by determining blood glucose levels in blood obtained from the tail vein of the rats at 48 h after STZ administration and monitored […] thereafter.
The Sildenafil-treated rats were divided in two group—normal and STZ-treated. In addition, there were two non-sildenafil groups—again normal and STZ treated. Throughout this period blood samples were taken from the tail vein on a weekly basis. These samples were taken prior to dosing so that trough concentrations could be estimated (ie at 6-8 h post dose). A further sample was taken at week 8 ([…] post dosing). Plasma from these blood samples, from all rats treated with sildenafil, and some controls, were assayed for sildenafil (and its n-desmethyl metabolite).
The plasma from these samples was stored at −20° C. and analysed for levels of glucose using the Roche/Hitachi 912 Clinical Chemistry Analyzer (Roche Diagnostics Corp., Indianapolis, Ind.) with kits supplied by Roche. All assays were conducted according to instructions provided by the manufacturers.

[2] = Sildenafil mean plasma concentration (free drug) in normal and STZ-treated rats on chronic sc dosing; format: in vivo, rat; conditions: chronic sildenafil 3 × 20 mg/kg sc/day
Procedure: as §1
Throughout this period blood samples were taken from the tail vein on a weekly basis. These samples were taken prior to dosing so that trough concentrations could be estimated (ie at 6-8 h post dose). A further sample was taken at week 8 ([…] post dosing).

[3] = tested on: U397 cells; conditions: statement quoted from U.S. Pat. No. 6,479,493, column 38; cited from earlier work

## CCCc1nn(C)c2c(=O)[nH]c(-c3cc(S(=O)(=O)N4CCN(C)CC4)ccc3OCC)nc12 [Sildenafil, 5-[2-ethoxy-5-(4-methyl-1-piperazinylsulphonyl)phenyl]-1-methyl-3-n-propyl-1,6-dihydro-7H-pyrazolo[4,3-d]pyrimidin-7-one]
[1]; Control rats
  minimum glucose levels (Table 3), Change from vehicle: -13 mg/dL
  minimum glucose levels (Table 3), Sildenafil group: 176 mg/dL
  minimum plasma glucose (Table 2), Change from vehicle: -25 mg/dL
  minimum plasma glucose (Table 2), Sildenafil group: 190 mg/dL
[1]; STZ-treated animals, statistically significant effect
  statistical significance (p) of effect of sildenafil on minimum glucose levels: < 0.01
[1]; STZ-treated rats
  minimum glucose levels (Table 3), Change from vehicle: -269 mg/dL
  minimum glucose levels (Table 3), Sildenafil group: 462 mg/dL
  minimum plasma glucose (Table 2), Change from vehicle: -220 mg/dL
  minimum plasma glucose (Table 2), Sildenafil group: 583 mg/dL
  statistical significance (p) of effect of Sildenafil on average glucose: < 0.05
[1]; control and STZ-treated rats, decrease greater in STZ-treated animals
  effect on average plasma glucose (in words): lowered average glucose in both types of rat
[1]; control rats
  statistical significance (p) of effect of Sildenafil on average glucose: < 0.01
[1]; control rats, no statistically significant effect
  statistical significance (p) of effect of sildenafil on minimum glucose levels: > 0.10
[2]; Normal rats, 2 weeks (6-8 h post dose), n = 12
  Sildenafil Mean plasma concentration (free drug): 36 nM
[2]; Normal rats, 4 weeks (6-8 h post dose), n = 12
  Sildenafil Mean plasma concentration (free drug): 45 nM
[2]; Normal rats, 6 weeks (6-8 h post dose), n = 12
  Sildenafil Mean plasma concentration (free drug): 45 nM
[2]; Normal rats, 8 weeks (32-35 h post dose), n = 12
  Sildenafil Mean plasma concentration (free drug): 28 nM
[2]; STZ rats, 2 weeks (6-8 h post dose), N = 6-10
  Sildenafil Mean plasma concentration (free drug): 79 nM
[2]; STZ rats, 4 weeks (6-8 h post dose), N = 6-10
  Sildenafil Mean plasma concentration (free drug): 41 nM
[2]; STZ rats, 6 weeks (6-8 h post dose), N = 6-10
  Sildenafil Mean plasma concentration (free drug): 57 nM
[2]; STZ rats, 8 weeks (32-35 h post dose), N = 6-10
  Sildenafil Mean plasma concentration (free drug): 11 nM
[3]
  induction of apoptosis: does not induce apoptosis
